Tests used:
Format in all cases: cell-based
MDA-MB-231 = experiment: Cancer cell panel, cell viability (resazurin): Breast, MDA-MB-231; conditions: MDA-MB-231 (Breast), 72 hours; labelled drug combined with Example 3
MCF7 = experiment: Cancer cell panel, cell viability (resazurin): Breast, MCF7; conditions: 72 hours, labelled drug combined with Example 3
Protocol: (§1) Cells were plated in 96-well plates and treated for 72 hours with a serially diluted CK2 inhibitor or anti-cancer drug or their combination. The suspension cell lines were treated right after plating, while the adherent cells were allowed to attach overnight prior to the start of the treatment.
(§2) Cell viability was determined by adding resazurin to cell cultures and measuring fluorescence with a plate reader. Relative cell viability was calculated by dividing the cell viability signal from a test sample by that of a non-treated control. […] Bliss Independence and Highest Single Agent models were used to determine if there is synergy, additivity or antagonism between the CK2 inhibitor and an anti-cancer drug.

MDA-MB-157 = experiment: Cancer cell panel, cell viability (resazurin): Breast, MDA-MB-157; conditions: MDA-MB-157 (Breast), 72 hours; labelled drug combined with Example 3
A375 = experiment: Cancer cell panel, cell viability (resazurin): Melanoma, A375; conditions: 72 hours, labelled drug combined with Example 3
Caov-3 = experiment: Cancer cell panel, cell viability (resazurin): Ovarian, Caov-3; conditions: Caov-3 (Ovarian), 72 hours; labelled drug combined with Example 3
HL60 = experiment: Cancer cell panel, cell viability (resazurin): Leukemia, HL60; conditions: 72 hours, labelled drug combined with Example 3
Protocol: as §1, §2

SK-MEL-24 = experiment: Cancer cell panel, cell viability (resazurin): Melanoma, SK-MEL-24; conditions: SK-MEL-24 (Melanoma), 72 hours; labelled drug combined with Example 3
K562 = experiment: Cancer cell panel, cell viability (resazurin): Leukemia, K562; conditions: 72 hours, labelled drug combined with Example 3
Mia-Paca-2 = experiment: Cancer cell panel, cell viability (resazurin): Pancreatic, Mia-Paca-2; conditions: Mia-Paca-2 (Pancreatic), 72 hours; labelled drug combined with Example 3
ACHN = experiment: Cancer cell panel, cell viability (resazurin): Renal, ACHN; conditions: 72 hours, labelled drug combined with Example 3
ZR-75-1 = experiment: Cancer cell panel, cell viability (resazurin): Breast, ZR-75-1; conditions: ZR-75-1 (Breast), 72 hours; labelled drug combined with Example 3
A549 = experiment: Cancer cell panel, cell viability (resazurin): NSCLC, A549; conditions: 72 hours, labelled drug combined with Example 3
Protocol: as §1, §2

RPMI8226 = experiment: Cancer cell panel, cell viability (resazurin): multiple myeloma, RPMI8226; conditions: 72 hours, labelled drug combined with Example 3
A2780 = experiment: Cancer cell panel, cell viability (resazurin): Ovarian, A2780; conditions: 72 hours, labelled drug combined with Example 3
DLD-1 = experiment: Cancer cell panel, cell viability (resazurin): Colon, DLD-1; conditions: DLD-1 (Colon), 72 hours; labelled drug combined with Example 3
OVCAR-3 = experiment: Cancer cell panel, cell viability (resazurin): Ovarian, OVCAR-3; conditions: OVCAR-3 (Ovarian), 72 hours; labelled drug combined with Example 3
Protocol: as §1, §2

SkBr-3 = experiment: Cancer cell panel, cell viability (resazurin): Breast, SkBr-3; conditions: SkBr-3 (Breast), 72 hours; labelled drug combined with Example 3
H2122 = experiment: Cancer cell panel, cell viability (resazurin): NSCLC, H2122; conditions: 72 hours, labelled drug combined with Example 3
LoVo = experiment: Cancer cell panel, cell viability (resazurin): Colon, LoVo; conditions: 72 hours, labelled drug combined with Example 3
HT29 = experiment: Cancer cell panel, cell viability (resazurin): Colon, HT29; conditions: 72 hours, labelled drug combined with Example 3
SK-MEL-3 = experiment: Cancer cell panel, cell viability (resazurin): Melanoma, SK-MEL-3; conditions: SK-MEL-3 (Melanoma), 72 hours; labelled drug combined with Example 3
WM-115 = experiment: Cancer cell panel, cell viability (resazurin): Melanoma, WM-115; conditions: WM-115 (Melanoma), 72 hours; labelled drug combined with Example 3
BT-20 = experiment: Cancer cell panel, cell viability (resazurin): Breast, BT-20; conditions: BT-20 (Breast), 72 hours; labelled drug combined with Example 3
Ramos = experiment: Cancer cell panel, cell viability (resazurin): Burkitt's Lymphoma, Ramos; conditions: 72 hours, labelled drug combined with Example 3
Protocol: as §1, §2

U266 = experiment: Cancer cell panel, cell viability (resazurin): multiple myeloma, U266; conditions: 72 hours, labelled drug combined with Example 3
Protocol: as §1, §2

H1975 = experiment: Cancer cell panel, cell viability (resazurin): NSCLC, H1975; conditions: 72 hours, labelled drug combined with Example 3
Protocol: as §1, §2

SKOV-3 = experiment: Cancer cell panel, cell viability (resazurin): Ovarian, SKOV-3; conditions: SKOV-3 (Ovarian), 72 hours; labelled drug combined with Example 3
Protocol: as §1, §2

MOLT4 = experiment: Cancer cell panel, cell viability (resazurin): Leukemia, MOLT4; conditions: 72 hours, labelled drug combined with Example 3
Raji = experiment: Cancer cell panel, cell viability (resazurin): Burkitt's Lymphoma, Raji; conditions: 72 hours, labelled drug combined with Example 3
T47D = experiment: Cancer cell panel, cell viability (resazurin): Breast, T47D; conditions: 72 hours, labelled drug combined with Example 3
Protocol: as §1, §2

Colo205 = experiment: Cancer cell panel, cell viability (resazurin): Colon, Colo205; conditions: 72 hours, labelled drug combined with Example 3
Protocol: as §1, §2

Caki-1 = experiment: Cancer cell panel, cell viability (resazurin): Renal, Caki-1; conditions: Caki-1 (Renal), 72 hours; labelled drug combined with Example 3
H1299 = experiment: Cancer cell panel, cell viability (resazurin): NSCLC, H1299; conditions: 72 hours, labelled drug combined with Example 3
H460 = experiment: Cancer cell panel, cell viability (resazurin): NSCLC, H460; conditions: 72 hours, labelled drug combined with Example 3
BxPC3 = experiment: Cancer cell panel, cell viability (resazurin): Pancreatic, BxPC3; conditions: 72 hours, labelled drug combined with Example 3
H23 = experiment: Cancer cell panel, cell viability (resazurin): NSCLC, H23; conditions: 72 hours, labelled drug combined with Example 3
EOL-1 = experiment: Cancer cell panel, cell viability (resazurin): Leukemia, EOL-1; conditions: EOL-1 (Leukemia), 72 hours; labelled drug combined with Example 3
Panc-1 = experiment: Cancer cell panel, cell viability (resazurin): Pancreatic, Panc-1; conditions: Panc-1 (Pancreatic), 72 hours; labelled drug combined with Example 3

Structure (SMILES): CCN(CC)CCNC(=O)c1c(C)[nH]c(/C=C2\C(=O)Nc3ccc(F)cc32)c1C [Sunitinib, sunitinib]
- synergy, additivity or antagonism of the combination of Example 3 with the anti-cancer drug (MDA-MB-231): + + (Slight synergy relative to each agent alone (CI = 0.75-0.9 by Bliss Independence Model))
- synergy, additivity or antagonism of the combination of Example 3 with the anti-cancer drug (MCF7): + (Additive relative to each agent alone (CI = 0.9-1 by Bliss Independence Model and <0.9 by Highest Single Agent Model))
- synergy, additivity or antagonism of the combination of Example 3 with the anti-cancer drug (MDA-MB-157): + + + (Synergy relative to each agent alone (CI = 0.4-0.74 by Bliss Independence Model))
- synergy, additivity or antagonism of the combination of Example 3 with the anti-cancer drug (A375): + + (Slight synergy relative to each agent alone (CI = 0.75-0.9 by Bliss Independence Model))
- synergy, additivity or antagonism of the combination of Example 3 with the anti-cancer drug (Caov-3): + (Additive relative to each agent alone (CI = 0.9-1 by Bliss Independence Model and <0.9 by Highest Single Agent Model))
- synergy, additivity or antagonism of the combination of Example 3 with the anti-cancer drug (HL60): + + (Slight synergy relative to each agent alone (CI = 0.75-0.9 by Bliss Independence Model))
- synergy, additivity or antagonism of the combination of Example 3 with the anti-cancer drug (SK-MEL-24): + + + (Synergy relative to each agent alone (CI = 0.4-0.74 by Bliss Independence Model))
- synergy, additivity or antagonism of the combination of Example 3 with the anti-cancer drug (K562): + + + (Synergy relative to each agent alone (CI = 0.4-0.74 by Bliss Independence Model))
- synergy, additivity or antagonism of the combination of Example 3 with the anti-cancer drug (Mia-Paca-2): + + (Slight synergy relative to each agent alone (CI = 0.75-0.9 by Bliss Independence Model))
- synergy, additivity or antagonism of the combination of Example 3 with the anti-cancer drug (ACHN): + (Additive relative to each agent alone (CI = 0.9-1 by Bliss Independence Model and <0.9 by Highest Single Agent Model))
- synergy, additivity or antagonism of the combination of Example 3 with the anti-cancer drug (ZR-75-1): + + (Slight synergy relative to each agent alone (CI = 0.75-0.9 by Bliss Independence Model))
- synergy, additivity or antagonism of the combination of Example 3 with the anti-cancer drug (A549): + + + (Synergy relative to each agent alone (CI = 0.4-0.74 by Bliss Independence Model))
- synergy, additivity or antagonism of the combination of Example 3 with the anti-cancer drug (RPMI8226): + + + + (Strong synergy relative to each agent alone (CI < 0.4 by Bliss Independence Model))
- synergy, additivity or antagonism of the combination of Example 3 with the anti-cancer drug (A2780): + + + (Synergy relative to each agent alone (CI = 0.4-0.74 by Bliss Independence Model))
- synergy, additivity or antagonism of the combination of Example 3 with the anti-cancer drug (DLD-1): + + (Slight synergy relative to each agent alone (CI = 0.75-0.9 by Bliss Independence Model))
- synergy, additivity or antagonism of the combination of Example 3 with the anti-cancer drug (OVCAR-3): − − (Antagonistic relative to each agent alone (CI = 1.2-1.49 by Highest Single Agent Model))
- synergy, additivity or antagonism of the combination of Example 3 with the anti-cancer drug (SkBr-3): + + (Slight synergy relative to each agent alone (CI = 0.75-0.9 by Bliss Independence Model))
- synergy, additivity or antagonism of the combination of Example 3 with the anti-cancer drug (H2122): + + (Slight synergy relative to each agent alone (CI = 0.75-0.9 by Bliss Independence Model))
- synergy, additivity or antagonism of the combination of Example 3 with the anti-cancer drug (LoVo): + (Additive relative to each agent alone (CI = 0.9-1 by Bliss Independence Model and <0.9 by Highest Single Agent Model))
- synergy, additivity or antagonism of the combination of Example 3 with the anti-cancer drug (HT29): + (Additive relative to each agent alone (CI = 0.9-1 by Bliss Independence Model and <0.9 by Highest Single Agent Model))
- synergy, additivity or antagonism of the combination of Example 3 with the anti-cancer drug (SK-MEL-3): + (Additive relative to each agent alone (CI = 0.9-1 by Bliss Independence Model and <0.9 by Highest Single Agent Model))
- synergy, additivity or antagonism of the combination of Example 3 with the anti-cancer drug (WM-115): + + (Slight synergy relative to each agent alone (CI = 0.75-0.9 by Bliss Independence Model))
- synergy, additivity or antagonism of the combination of Example 3 with the anti-cancer drug (BT-20): + + (Slight synergy relative to each agent alone (CI = 0.75-0.9 by Bliss Independence Model))
- synergy, additivity or antagonism of the combination of Example 3 with the anti-cancer drug (Ramos): + + (Slight synergy relative to each agent alone (CI = 0.75-0.9 by Bliss Independence Model))
- synergy, additivity or antagonism of the combination of Example 3 with the anti-cancer drug (U266): + (Additive relative to each agent alone (CI = 0.9-1 by Bliss Independence Model and <0.9 by Highest Single Agent Model))
- synergy, additivity or antagonism of the combination of Example 3 with the anti-cancer drug (H1975): + + (Slight synergy relative to each agent alone (CI = 0.75-0.9 by Bliss Independence Model))
- synergy, additivity or antagonism of the combination of Example 3 with the anti-cancer drug (SKOV-3): + (Additive relative to each agent alone (CI = 0.9-1 by Bliss Independence Model and <0.9 by Highest Single Agent Model))
- synergy, additivity or antagonism of the combination of Example 3 with the anti-cancer drug (MOLT4): + (Additive relative to each agent alone (CI = 0.9-1 by Bliss Independence Model and <0.9 by Highest Single Agent Model))
- synergy, additivity or antagonism of the combination of Example 3 with the anti-cancer drug (Raji): + + (Slight synergy relative to each agent alone (CI = 0.75-0.9 by Bliss Independence Model))
- synergy, additivity or antagonism of the combination of Example 3 with the anti-cancer drug (T47D): + (Additive relative to each agent alone (CI = 0.9-1 by Bliss Independence Model and <0.9 by Highest Single Agent Model))
- synergy, additivity or antagonism of the combination of Example 3 with the anti-cancer drug (Colo205): + + + + (Strong synergy relative to each agent alone (CI < 0.4 by Bliss Independence Model))
- synergy, additivity or antagonism of the combination of Example 3 with the anti-cancer drug (Caki-1): + (Additive relative to each agent alone (CI = 0.9-1 by Bliss Independence Model and <0.9 by Highest Single Agent Model))
- synergy, additivity or antagonism of the combination of Example 3 with the anti-cancer drug (H1299): + (Additive relative to each agent alone (CI = 0.9-1 by Bliss Independence Model and <0.9 by Highest Single Agent Model))
- synergy, additivity or antagonism of the combination of Example 3 with the anti-cancer drug (H460): + + (Slight synergy relative to each agent alone (CI = 0.75-0.9 by Bliss Independence Model))
- synergy, additivity or antagonism of the combination of Example 3 with the anti-cancer drug (BxPC3): + + + (Synergy relative to each agent alone (CI = 0.4-0.74 by Bliss Independence Model))
- synergy, additivity or antagonism of the combination of Example 3 with the anti-cancer drug (H23): + + + (Synergy relative to each agent alone (CI = 0.4-0.74 by Bliss Independence Model))
- synergy, additivity or antagonism of the combination of Example 3 with the anti-cancer drug (EOL-1): + + (Slight synergy relative to each agent alone (CI = 0.75-0.9 by Bliss Independence Model))
- synergy, additivity or antagonism of the combination of Example 3 with the anti-cancer drug (Panc-1): + + (Slight synergy relative to each agent alone (CI = 0.75-0.9 by Bliss Independence Model))
